Assays:
[1] = target: T1, angiotensin II (A-II) receptor (Bos taurus, UniProt P25104); experiment: Inhibition of binding of angiotensin II to angiotensin II receptor (radioreceptor assay, 125I-A-II, bovine adrenal cortex membrane fraction); conditions: room temperature, 1 h; for inhibition at 1 µM: 10^-6 M; for inhibition at 0.1 µM: 10^-7 M
T1 construct: membrane fraction was prepared from bovine adrenal cortex; from tissue; host or cells: bovine adrenal cortex membrane fraction
T1 sequence (P25104 1-359): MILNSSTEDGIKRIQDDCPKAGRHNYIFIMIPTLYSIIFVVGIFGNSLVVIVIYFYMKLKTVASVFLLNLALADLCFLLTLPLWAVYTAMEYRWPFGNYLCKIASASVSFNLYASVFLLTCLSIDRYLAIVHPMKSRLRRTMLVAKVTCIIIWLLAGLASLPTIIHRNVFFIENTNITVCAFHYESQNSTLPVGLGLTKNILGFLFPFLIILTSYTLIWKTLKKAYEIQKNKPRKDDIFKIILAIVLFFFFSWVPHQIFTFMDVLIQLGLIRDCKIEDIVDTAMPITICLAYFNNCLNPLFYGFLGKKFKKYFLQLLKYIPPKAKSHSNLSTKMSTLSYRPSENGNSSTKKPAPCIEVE
Description: Inhibitory Effect of Binding of Angiotensin-II to Angiotensin Receptor
An experiment of inhibition on the binding of angiotensin II (A-II) receptor was conducted by modifying the method of Douglas et al. [Endocrinology, 102, 685-696 (1978)]. An A-II receptor membrane fraction was prepared from bovine adrenal cortex.
The compound of the present invention (10^-6 M or 10^-7 M) and^125 I-angiotensin II (^125 I-A-II) (1.85 kBq/50 μl) were added to the receptor membrane fraction, and the mixture was incubated at room temperature for one hour. The receptor-bound and free ^125 I-A-II were separated through a filter (Whatman GF/B filter), and the radioactivity of ^125 I-A-II bound to the receptor was measured.

[2] = system: A-II-induced pressor action; experiment: Inhibitory effect on pressor action of angiotensin II in rats (p.o.); assay type: in vivo, Jcl: SD rats; conditions: Rattus norvegicus, po; 1 mg/kg p.o.; male SD rats; A-II 100 ng/kg i.v.; read-out: Pressor Response (percent inhibition of A-II-induced pressor action)
Source text: Inhibitory Effect of the Compound of the Present Invention on Pressor Action of Angiotensin
Jcl: SD rats (9 week old, male) were employed. On the day previous to that of the experiment, these animals were applied with cannulation into the femoral artery and vein under anesthesia with pentobarbital Na. The animals were fasted but allowed to access freely to drinking water until the experiment was started. Just on the day of conducting the experiment, the artery cannula was connected with a blood-pressure transducer, and the average blood pressure was recorded by means of polygraph. Before administration of the drug, the pressor action due to intravenous administration of angiotensin II (A-II) (100 ng/kg) as the control was measured. The drugs were orally administered, then, at each point of the measurement, A-II was administered intravenously, and the pressor action was similarly measured. By comparing the pressor action before and after administration of the drug, the percent inhibition by the drug on A-II-induced pressor action was evaluated.

Compound | inhibition at 1 µM [1] [%] | inhibition at 0.1 µM [1] [%] | inhibition in vivo at 1 mg/kg [2] [%]
Cc1sc(C(=O)O)c2c1nc(SC(C)C)n2Cc1ccc(-c2ccccc2-c2nnn[nH]2)cc1 [Working Example 17, 2-Isopropylthio-4-methyl-1-[[2'-(1H-tetrazol-5-yl]-biphenyl-4-yl]methyl]thieno[3,4-d]imidazole-6-carboxylic acid] | 64 | 26 | ≥ 70
CCSc1nc2csc(C(=O)O)c2n1Cc1ccc(-c2ccccc2-c2nnn[nH]2)cc1 [Working Example 22, 2-Ethylthio-1-[[2'-(1H-tetrazol-5-yl)biphenyl-4-yl]methyl]thieno[3,4-d]imidazole-6-carboxylic acid] | 84 | 45 | 50 to 70
CCNc1nc2c(C)sc(C(=O)O)c2n1Cc1ccc(-c2ccccc2-c2nn[nH]n2)cc1 [compound 31] | 75 | 26 | –
CCCCSc1nc2c(C)sc(C(=O)O)c2n1Cc1ccc(-c2ccccc2-c2nn[nH]n2)cc1 [Working Example 18, 2-Butylthio-4-methyl-1-[[2',(1H-tetrazol-5-yl)biphenyl-4-yl]methyl]thieno[3,4-d]imidazole-6-carboxylic acid] | 66 | 33 | 30 to 50
CCSc1nc2c(C)sc(C(=O)OCOC(=O)C(C)(C)C)c2n1Cc1ccc(-c2ccccc2-c2nn[nH]n2)cc1 [compound 5] | 89 | 59 | ≥ 70
COc1nc2c(C)sc(C(=O)OCOC(C)=O)c2n1Cc1ccc(-c2ccccc2-c2nn[nH]n2)cc1 [compound 36] | 92 | 73 | ≥ 70
CCSc1nc2c(C)sc(C(=O)OC(C)OC(=O)OC3CCCCC3)c2n1Cc1ccc(-c2ccccc2-c2nn[nH]n2)cc1 (stereo not drawn) [compound 6] | 84 | 46 | ≥ 70
COC(=O)c1sc(C)c2nc(SC)n(Cc3ccc(-c4ccccc4-c4nn[nH]n4)cc3)c12 [compound 7] | 77 | 55 | 30 to 50
CCOc1nc2c(C)sc(C(=O)O)c2n1Cc1ccc(-c2ccccc2-c2nn[nH]n2)cc1 [compound 29] | 67 | 39 | –

Now from value to molecule, other results behind:

inhibition at 1 µM [1] [%] | inhibition at 0.1 µM [1] [%] | Compound | inhibition in vivo at 1 mg/kg [2] [%]
50 | 14 | CSc1nc2c(C)sc(C(=O)O)c2n1Cc1ccc(-c2ccccc2-c2nn[nH]n2)cc1 [Working Example 15] | ≥ 70
72 | 33 | CCCOc1nc2c(C)sc(C(=O)O)c2n1Cc1ccc(-c2ccccc2-c2nn[nH]n2)cc1 [compound 30] | –
65 | 19 | COc1nc2c(C)sc(C(=O)O)c2n1Cc1ccc(-c2ccccc2-c2nn[nH]n2)cc1 [compound 28] | ≥ 70
91 | 68 | CCSc1nc2c(C)sc(C(=O)OC)c2n1Cc1ccc(-c2ccccc2-c2nn[nH]n2)cc1 [compound 1] | 30 to 50
64 | 18 | CCSc1nc2c(C)sc(C(=O)O)c2n1Cc1ccc(-c2ccccc2-c2nn[nH]n2)cc1 [compound 2] | ≥ 70
